ChEMBL document CHEMBL1275261, “Nationwide investigation of extended-spectrum beta-lactamases, metallo-beta-lactamases, and extended-spectrum oxacillinases produced by ceftazidime-resistant Pseudomonas aeruginosa strains in France” (2010)
Values after ≈ are worked out from the molar mass of the structure shown.

Columns and labels:
Format in all cases: functional
Pseudomonas aeruginosa [1] = assay: Antibacterial activity against IMP-18 producing Pseudomonas aeruginosa isolate P85 exhibiting PFGE K pattern by 2-fold agar dilution method
Pseudomonas aeruginosa [2] = assay: Antibacterial activity against OXA-19 producing Pseudomonas aeruginosa isolate P9 exhibiting PFGE A pattern by 2-fold agar dilution method
Pseudomonas aeruginosa [3] = assay: Antibacterial activity against SHV-2a producing Pseudomonas aeruginosa isolate P102 exhibiting PFGE H pattern by 2-fold agar dilution method
Pseudomonas aeruginosa [4] = assay: Antibacterial activity against VEB-1a and OXA-10 producing Pseudomonas aeruginosa isolate P151 exhibiting PFGE I pattern by 2-fold agar dilution method
Pseudomonas aeruginosa [5] = assay: Antibacterial activity against OXA-28 producing Pseudomonas aeruginosa isolate P174 exhibiting PFGE E pattern by 2-fold agar dilution method
Pseudomonas aeruginosa [6] = assay: Antibacterial activity against VIM-2 producing Pseudomonas aeruginosa isolate P67 exhibiting PFGE J pattern by 2-fold agar dilution method
Pseudomonas aeruginosa [7] = assay: Antibacterial activity against PER-1 producing Pseudomonas aeruginosa isolate P170 exhibiting PFGE G pattern by 2-fold agar dilution method
Pseudomonas aeruginosa [8] = assay: Antibacterial activity against OXA-2 and OXA-19 producing Pseudomonas aeruginosa isolate P66 exhibiting PFGE C pattern by 2-fold agar dilution method
Pseudomonas aeruginosa [9] = assay: Antibacterial activity against SHV-2a producing Pseudomonas aeruginosa isolate P60 exhibiting PFGE H pattern by 2-fold agar dilution method
Pseudomonas aeruginosa [10] = assay: Antibacterial activity against OXA-10, PSE-1, VIM-2 and PER-1 producing Pseudomonas aeruginosa isolate P22 exhibiting PFGE F pattern by 2-fold agar dilution method
Pseudomonas aeruginosa [11] = assay: Antibacterial activity against OXA-30, PSE-1, VIM-2 and PER-1 producing Pseudomonas aeruginosa isolate P19 exhibiting PFGE F pattern by 2-fold agar dilution method
Pseudomonas aeruginosa [12] = assay: Antibacterial activity against OXA-19 producing Pseudomonas aeruginosa isolate P122 exhibiting PFGE A pattern by 2-fold agar dilution method
Pseudomonas aeruginosa [13] = assay: Antibacterial activity against OXA-19 producing Pseudomonas aeruginosa isolate P11 exhibiting PFGE A pattern by 2-fold agar dilution method
Pseudomonas aeruginosa [14] = assay: Antibacterial activity against VEB-1a and OXA-10 producing Pseudomonas aeruginosa isolate P151 exhibiting PFGE I pattern by 2-fold agar dilution method in presence of 4 ug/ml Tazobactam
Pseudomonas aeruginosa [15] = assay: Antibacterial activity against OXA-30, PSE-1, VIM-2 and PER-1 producing Pseudomonas aeruginosa isolate P19 exhibiting PFGE F pattern by 2-fold agar dilution method in presence of 4 ug/ml Tazobactam
Pseudomonas aeruginosa [16] = assay: Antibacterial activity against SHV-2a producing Pseudomonas aeruginosa isolate P102 exhibiting PFGE H pattern by 2-fold agar dilution method in presence of 4 ug/ml Tazobactam
Pseudomonas aeruginosa [17] = assay: Antibacterial activity against IMP-18 producing Pseudomonas aeruginosa isolate P85 exhibiting PFGE K pattern by 2-fold agar dilution method in presence of 4 ug/ml Tazobactam
Pseudomonas aeruginosa [18] = assay: Antibacterial activity against OXA-19 producing Pseudomonas aeruginosa isolate P9 exhibiting PFGE A pattern by 2-fold agar dilution method in presence of 4 ug/ml Tazobactam
Pseudomonas aeruginosa [19] = assay: Antibacterial activity against PER-1 producing Pseudomonas aeruginosa isolate P170 exhibiting PFGE G pattern by 2-fold agar dilution method in presence of 4 ug/ml Tazobactam
Pseudomonas aeruginosa [20] = assay: Antibacterial activity against OXA-19 producing Pseudomonas aeruginosa isolate P122 exhibiting PFGE A pattern by 2-fold agar dilution method in presence of 4 ug/ml Tazobactam
Pseudomonas aeruginosa [21] = assay: Antibacterial activity against OXA-19 producing Pseudomonas aeruginosa isolate P11 exhibiting PFGE A pattern by 2-fold agar dilution method in presence of 4 ug/ml Tazobactam
Pseudomonas aeruginosa [22] = assay: Antibacterial activity against OXA-10, PSE-1, VIM-2 and PER-1 producing Pseudomonas aeruginosa isolate P22 exhibiting PFGE F pattern by 2-fold agar dilution method in presence of 4 ug/ml Tazobactam
Pseudomonas aeruginosa [23] = assay: Antibacterial activity against OXA-28 producing Pseudomonas aeruginosa isolate P174 exhibiting PFGE E pattern by 2-fold agar dilution method in presence of 4 ug/ml Tazobactam
Pseudomonas aeruginosa [24] = assay: Antibacterial activity against SHV-2a producing Pseudomonas aeruginosa isolate P60 exhibiting PFGE H pattern by 2-fold agar dilution method in presence of 4 ug/ml Tazobactam
Pseudomonas aeruginosa [25] = assay: Antibacterial activity against OXA-2 and OXA-19 producing Pseudomonas aeruginosa isolate P66 exhibiting PFGE C pattern by 2-fold agar dilution method in presence of 4 ug/ml Tazobactam
Pseudomonas aeruginosa [26] = assay: Antibacterial activity against VIM-2 producing Pseudomonas aeruginosa isolate P67 exhibiting PFGE J pattern by 2-fold agar dilution method in presence of 4 ug/ml Tazobactam

Row | SMILES | MIC (Pseudomonas aeruginosa [1]) | MIC (Pseudomonas aeruginosa [2]) | MIC (Pseudomonas aeruginosa [3]) | MIC (Pseudomonas aeruginosa [4]) | MIC (Pseudomonas aeruginosa [5]) | MIC (Pseudomonas aeruginosa [6]) | MIC (Pseudomonas aeruginosa [7]) | MIC (Pseudomonas aeruginosa [8]) | MIC (Pseudomonas aeruginosa [9]) | MIC (Pseudomonas aeruginosa [10]) | MIC (Pseudomonas aeruginosa [11]) | MIC (Pseudomonas aeruginosa [12]) | MIC (Pseudomonas aeruginosa [13]) | also measured
1 | C[C@H]1[C@H](NC(=O)/C(=N\OC(C)(C)C(=O)O)c2csc(N)n2)C(=O)N1S(=O)(=O)O [AZTREONAM] | 16 µg/mL (≈ 36.7 µM) | 16 µg/mL (≈ 36.7 µM) | 32 µg/mL (≈ 73.5 µM) | > 512 µg/mL | 32 µg/mL (≈ 73.5 µM) | 32 µg/mL (≈ 73.5 µM) | 128 µg/mL (≈ 294 µM) | 16 µg/mL (≈ 36.7 µM) | 32 µg/mL (≈ 73.5 µM) | 256 µg/mL (≈ 588 µM) | 128 µg/mL (≈ 294 µM) |  |  | 
2 | NCC[C@H](O)C(=O)N[C@@H]1C[C@H](N)[C@@H](O[C@H]2O[C@H](CN)[C@@H](O)[C@H](O)[C@H]2O)[C@H](O)[C@H]1O[C@H]1O[C@H](CO)[C@@H](O)[C@H](N)[C@H]1O [AMIKACIN] | > 512 µg/mL | 16 µg/mL (≈ 27.3 µM) | 128 µg/mL (≈ 219 µM) | 128 µg/mL (≈ 219 µM) | 16 µg/mL (≈ 27.3 µM) | 32 µg/mL (≈ 54.6 µM) | 32 µg/mL (≈ 54.6 µM) | 128 µg/mL (≈ 219 µM) | 32 µg/mL (≈ 54.6 µM) | 64 µg/mL (≈ 109 µM) | 64 µg/mL (≈ 109 µM) | 8 µg/mL (≈ 13.7 µM) | 8 µg/mL (≈ 13.7 µM) | 
3 | CCN1CCN(C(=O)N[C@@H](C(=O)N[C@@H]2C(=O)N3[C@@H]2SC(C)(C)[C@@H]3C(=O)O)c2ccccc2)C(=O)C1=O [PIPERACILLIN] |  |  |  |  |  |  |  |  |  |  |  |  |  | MIC (Pseudomonas aeruginosa [14]): 256 µg/mL; MIC (Pseudomonas aeruginosa [15]): 256 µg/mL; MIC (Pseudomonas aeruginosa [16]): 128 µg/mL; MIC (Pseudomonas aeruginosa [17]): 128 µg/mL; MIC (Pseudomonas aeruginosa [18]): 128 µg/mL; MIC (Pseudomonas aeruginosa [19]): 128 µg/mL; MIC (Pseudomonas aeruginosa [20]): 64 µg/mL; MIC (Pseudomonas aeruginosa [21]): 64 µg/mL; MIC (Pseudomonas aeruginosa [22]): 256 µg/mL; MIC (Pseudomonas aeruginosa [23]): 128 µg/mL; MIC (Pseudomonas aeruginosa [24]): 128 µg/mL; MIC (Pseudomonas aeruginosa [25]): 32 µg/mL; MIC (Pseudomonas aeruginosa [26]): 32 µg/mL
4 | CO/N=C(\C(=O)N[C@@H]1C(=O)N2C(C(=O)[O-])=C(C[N+]3(C)CCCC3)CS[C@H]12)c1csc(N)n1 | 256 µg/mL (≈ 533 µM) | 64 µg/mL (≈ 133 µM) | 64 µg/mL (≈ 133 µM) | > 512 µg/mL | 32 µg/mL (≈ 66.6 µM) | 64 µg/mL (≈ 133 µM) | 64 µg/mL (≈ 133 µM) | 16 µg/mL (≈ 33.3 µM) | 64 µg/mL (≈ 133 µM) | 128 µg/mL (≈ 266 µM) | 128 µg/mL (≈ 266 µM) |  |  | 
5 | CC1(C)S[C@@H]2[C@H](NC(=O)[C@H](C(=O)O)c3ccsc3)C(=O)N2[C@H]1C(=O)O [TICARCILLIN] | > 512 µg/mL | 512 µg/mL (≈ 1330 µM) | > 512 µg/mL | > 512 µg/mL | 128 µg/mL (≈ 333 µM) | > 512 µg/mL | 512 µg/mL (≈ 1330 µM) | 512 µg/mL (≈ 1330 µM) | > 512 µg/mL | > 512 µg/mL | > 512 µg/mL | 256 µg/mL (≈ 666 µM) | 256 µg/mL (≈ 666 µM) | 
6 | CC(C)(O/N=C(\C(=O)N[C@@H]1C(=O)N2C(C(=O)[O-])=C(C[n+]3ccccc3)CS[C@H]12)c1csc(N)n1)C(=O)O [CEFTAZIDIME] | > 512 µg/mL | 256 µg/mL (≈ 468 µM) | 64 µg/mL (≈ 117 µM) | > 512 µg/mL | 256 µg/mL (≈ 468 µM) | 128 µg/mL (≈ 234 µM) | 256 µg/mL (≈ 468 µM) | 64 µg/mL (≈ 117 µM) | 64 µg/mL (≈ 117 µM) | 256 µg/mL (≈ 468 µM) | 256 µg/mL (≈ 468 µM) | 256 µg/mL (≈ 468 µM) | 256 µg/mL (≈ 468 µM) | 
7 | O=C(O)c1cn(C2CC2)c2cc(N3CCNCC3)c(F)cc2c1=O [CIPROFLOXACIN] | 128 µg/mL (≈ 386 µM) | 64 µg/mL (≈ 193 µM) | 32 µg/mL (≈ 96.6 µM) | 512 µg/mL (≈ 1550 µM) | 128 µg/mL (≈ 386 µM) | 128 µg/mL (≈ 386 µM) | 64 µg/mL (≈ 193 µM) | 128 µg/mL (≈ 386 µM) | 32 µg/mL (≈ 96.6 µM) |  |  | 64 µg/mL (≈ 193 µM) | 32 µg/mL (≈ 96.6 µM) | 
8 | C[C@@H](O)[C@H]1C(=O)N2C(C(=O)O)=C(SCCNC=N)C[C@H]12 [IMIPENEM ANHYDROUS] | 64 µg/mL (≈ 214 µM) | 16 µg/mL (≈ 53.4 µM) | 16 µg/mL (≈ 53.4 µM) | 32 µg/mL (≈ 107 µM) | 4 µg/mL (≈ 13.4 µM) | 512 µg/mL (≈ 1710 µM) | 4 µg/mL (≈ 13.4 µM) | 1 µg/mL (≈ 3.34 µM) | 1 µg/mL (≈ 3.34 µM) | 128 µg/mL (≈ 428 µM) | 128 µg/mL (≈ 428 µM) | 8 µg/mL (≈ 26.7 µM) | 8 µg/mL (≈ 26.7 µM) | 
